The results in this text go back to ChEMBL document CHEMBL1154736, “Increasing selectivity of CC chemokine receptor 8 antagonists by engineering nondesolvation related interactions with the intended and off-target binding sites” (J Med Chem, 2009).

Usually logD stands for the decadic logarithm of the distribution of all forms, ionised or not, between an organic phase and buffer at a given pH. What is called IC50 is the midpoint of a concentration-inhibition curve.

Each structure is given as a SMILES string.

The target of series [1] is Voltage-gated inwardly rectifying potassium channel KCNH2 (Homo sapiens, UniProt Q12809, F656W). Description: Inhibition of human recombinant ERG F656W mutant expressed in CHOK1 cells by whole-cell plate-based electrophysiology. Conditions: cho-k1.
A short description of series [2]: Apparent n-Octanol-water partition coefficient, log D at pH 7.4 by HPLC analysis.
The target of series [3] is Voltage-gated inwardly rectifying potassium channel KCNH2 (Homo sapiens, UniProt Q12809, Y652A). The series is described as follows: Inhibition of human recombinant ERG Y652A mutant expressed in CHOK1 cells by whole-cell plate-based electrophysiology. Conditions: cho-k1.
In series [4] the target is T1, Voltage-gated inwardly rectifying potassium channel KCNH2 (Homo sapiens, UniProt Q12809). The series is described as follows: Inhibition of wild type human ERG expressed in CHOK1 cells by whole-cell plate-based electrophysiology.
Series [5] has as its target Voltage-gated inwardly rectifying potassium channel KCNH2 (Homo sapiens, UniProt Q12809, F656M). Description: Inhibition of human recombinant ERG F656M mutant expressed in CHOK1 cells by whole-cell plate-based electrophysiology. Conditions: cho-k1.
Series [6] deals with C-C chemokine receptor type 8 (Homo sapiens, UniProt P51685). Description: Antagonist activity at human CCR8. It counts as functional.
The target in series [7] is T1, Voltage-gated inwardly rectifying potassium channel KCNH2. The series is described as follows: Displacement of [3H]dofetilide from human recombinant ERG expressed in HEK293 cells by patch clamp method. A general note: In a radioligand displacement assay an active substance lowers the binding of a labelled ligand.
The target in series [8] is Voltage-gated inwardly rectifying potassium channel KCNH2 (Homo sapiens, UniProt Q12809, Y652F). Description: Inhibition of human recombinant ERG Y652F mutant expressed in CHOK1 cells by whole-cell plate-based electrophysiology. The note with it: cho-k1.
Series [9] addresses Voltage-gated inwardly rectifying potassium channel KCNH2 (Homo sapiens, UniProt Q12809, S624A). The series is described as follows: Inhibition of human recombinant ERG S624A mutant expressed in CHOK1 cells by whole-cell plate-based electrophysiology. The note with it: cho-k1.
Series [10] has as its target Voltage-gated inwardly rectifying potassium channel KCNH2 (Homo sapiens, UniProt Q12809, S624T). Description: Inhibition of human recombinant ERG S624T mutant expressed in CHOK1 cells by whole-cell plate-based electrophysiology. Conditions: cho-k1.
In series [11] the target is Voltage-gated inwardly rectifying potassium channel KCNH2 (Homo sapiens, UniProt Q12809, F656T). Description: Inhibition of human recombinant ERG F656T mutant expressed in CHOK1 cells by whole-cell plate-based electrophysiology. The note with it: cho-k1.
In series [12] the target is Voltage-gated inwardly rectifying potassium channel KCNH2 (Homo sapiens, UniProt Q12809, T623S). Description: Inhibition of human recombinant ERG T623S mutant expressed in CHOK1 cells by whole-cell plate-based electrophysiology. The note with it: cho-k1.

Chain of C-C chemokine receptor type 8 (P51685 whole entry): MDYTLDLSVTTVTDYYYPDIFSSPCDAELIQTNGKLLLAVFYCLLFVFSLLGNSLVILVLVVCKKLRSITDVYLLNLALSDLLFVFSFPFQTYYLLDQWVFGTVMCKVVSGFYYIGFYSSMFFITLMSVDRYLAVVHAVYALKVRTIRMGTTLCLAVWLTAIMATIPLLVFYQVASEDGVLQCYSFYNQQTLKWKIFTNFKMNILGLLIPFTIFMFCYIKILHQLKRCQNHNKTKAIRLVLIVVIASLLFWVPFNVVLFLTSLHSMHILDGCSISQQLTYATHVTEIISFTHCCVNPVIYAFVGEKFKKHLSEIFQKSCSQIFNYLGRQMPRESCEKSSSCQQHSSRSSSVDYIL

`CC1(C)Cc2cccc(CN3CCC4(CC3)CCN(C(=O)c3ccc(N)cn3)CC4)c2O1`: the “delta pIC50 wt-mutant” value in [1] is given as -0.99; in [3], 0.83; in series [5], -0.31; in series [8], 0.35; in [9], 0.82; in series [10], -0.05. Also, the “delta pIC50 wt-mutant” value in [11] is reported as 0.51; in series [12], 0.22. The logD in [2] was found to be 1. Also, the IC50 is 43.7 µM in series [4], 0.00263 µM in series [6] and 37.2 µM in [7].

Consider `COc1ccccc1Oc1ccccc1CN1CCC2(CC1)CCN(C(=O)c1ccc[nH]c1=O)CC2`, for which the “delta pIC50 wt-mutant” value in series [1] is on record as -0.18; in series [3] it was 1.19; in series [5] it was 0.22; in [8], 0.35; in series [9], 0.54; in series [10] it was 0.24. For the same molecule, the “delta pIC50 wt-mutant” value in [11] was 1.92; in [12] it was 0.51. The logD in [2] came out at 0.9. For the same molecule, the IC50 in [4] was 14.1 µM; in series [6], 0.055 µM; in series [7], 2 µM.
